Results from ChEMBL document CHEMBL1127689, “Novel 4-(aryloxy)tetrahydropyridine analogs of MPTP as monoamine oxidase A and B substrates” (J Med Chem, 1994).

assay: Relative specificity for human MAO-A and bovine MAO-B

Going from `CN1CC=C(Cc2ccc3ccccc3c2)CC1` to `CN1CC=C(Cc2cccc3ccccc23)CC1`, the Selectivity rises from 10.8 to 24.7.

Going from `CCCCc1ccc(OC2=CCN(C)CC2)cc1` to `CN1CC=C(Oc2ccc(C(C)(C)C)cc2)CC1`, the Selectivity rises from 1.54 to 2.17.

Compared with `CN1CC=C(Oc2ccc(-c3ccccc3)cc2)CC1`, `CN1CC=C(Oc2ccccc2)CC1` is lower in Selectivity: 4.72 for the first, 0.57 for the second.

Compared with `CN1CC=C(Oc2cccc3ccccc23)CC1`, `CN1CC=C(Oc2ccc3ccccc3c2)CC1` is lower in Selectivity: 2.77 for the first, 2.21 for the second.

Going from `CN1CC=C(c2ccccc2)CC1` to `CN1CC=C(Cc2ccccc2)CC1`, the Selectivity falls from 0.27 to 0.11.

Work on `CN1CC=C(Oc2ccc(Cl)cc2Cl)CC1` yielded a Selectivity of 2.47.
